Laboratory results from BindingDB's records for doi:10.1016/j.bmcl.2007.04.096 (University of Michigan, 2007).
Where a SMILES comes first, the peptide text is derived from it. Bridges are numbered along the chain shown (N, C = ends). Triazole bridges read from a SMILES are 1,4-linked. [ ]: non-standard residue; d: D form. ξ: configuration not given here. pY = N[C@@H](Cc1ccc(OP(=O)(O)O)cc1)C(=O)O; Lys(N3) = [N-]=[N+]=NCCCC[C@H](N)C(=O)O; Thr(3ξ) = CC(O)[C@H](N)C(=O)O; Pra = C#CC[C@H](N)C(=O)O

Target: T1, Signal transducer and activator of transcription 3 [127-722] (Mus musculus, UniProt P42227)
T1 construct: 127-722
T1 sequence (P42227 127-722): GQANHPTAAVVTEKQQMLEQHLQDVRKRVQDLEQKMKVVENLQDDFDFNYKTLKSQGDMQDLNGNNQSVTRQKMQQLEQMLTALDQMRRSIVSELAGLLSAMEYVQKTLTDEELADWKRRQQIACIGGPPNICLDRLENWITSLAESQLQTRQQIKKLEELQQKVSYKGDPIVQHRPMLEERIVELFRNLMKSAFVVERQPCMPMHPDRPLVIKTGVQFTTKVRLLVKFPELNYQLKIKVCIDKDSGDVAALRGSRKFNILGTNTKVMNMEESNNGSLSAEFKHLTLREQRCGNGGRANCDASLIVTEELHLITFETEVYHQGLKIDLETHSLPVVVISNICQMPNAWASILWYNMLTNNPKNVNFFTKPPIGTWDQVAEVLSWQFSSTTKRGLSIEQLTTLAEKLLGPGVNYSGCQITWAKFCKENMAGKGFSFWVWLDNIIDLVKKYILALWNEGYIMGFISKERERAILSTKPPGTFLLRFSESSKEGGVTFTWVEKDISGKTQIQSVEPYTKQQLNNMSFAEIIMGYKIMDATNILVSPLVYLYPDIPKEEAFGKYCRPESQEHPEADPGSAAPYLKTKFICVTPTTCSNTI
Assay: Fluorescence-Polarization-Based Binding Assay
Settings: pH 7.5; 22 °C
Excerpt: Fluorescence polarization (FP) binding assay is utilizing the intrinsic property of the fluorescent probe, which will have low polarization value when free in solution. On binding to a target, the polarization of the probe will increase.

Row | SMILES | Ki
1 | CC(=O)N[C@@H](Cc1ccc(OP(=O)(O)O)cc1)C(=O)N[C@@H](CC(C)C)C(=O)N[C@@H](CCCCN)C(=O)N[C@H](C(=O)N[C@@H](CCCCN)C(=O)N[C@@H](Cc1ccccc1)C(N)=O)C(C)O (stereo partly drawn) [4-[(2S)-2-{[(1S)-1-{[(1S)-5-amino-1-{[(1S,2R)-1-{[(1S)-5-amino-1-{[(1S)-1-carbamoyl-2-phenylethyl]carbamoyl}pentyl]carbamoyl}-2-hydroxypropyl]carbamoyl}pentyl]carbamoyl}-3-methylbutyl]carbamoyl}-2-acetamidoethyl]phenoxyphosphonic acid] (HELM PEPTIDE1{[ac].[O=C([C@H](Cc1ccc(OP(=O)(O)O)cc1)N[*:1])[*:2]].L.K.[CC(O)[C@H](N[*:1])C(=O)[*:2]].K.F.[am]}$$$$V2.0) | 25.9 µM
2 | CC(=O)N[C@@H](Cc1ccc(OP(=O)(O)O)cc1)C(=O)N[C@@H](CC(C)C)C(=O)N[C@H]1CCCCn2cc(nn2)C[C@@H](C(=O)N[C@@H](Cc2ccccc2)C(N)=O)NC(=O)[C@H](C(C)O)NC1=O (stereo partly drawn) [4-[(2S)-2-{[(1S)-1-{[(6S,9S,12S)-12-{[(1S)-1-carbamoyl-2-phenylethyl]carbamoyl}-9-[(1R)-1-hydroxyethyl]-7,10-dioxo-1,8,11,15,16-pentaazabicyclo[12.2.1]heptadeca-14(17),15-dien-6-yl]carbamoyl}-3-methylbutyl]carbamoyl}-2-acetamidoethyl]phenoxyphosphonic acid] (Ac-[pY]L[Lys(N3)][Thr(3ξ)][Pra]F-NH2; triazole 3-5) | 7.3 µM
